What was measured:
[1] = acid dissociation index (pK1, pK2) at 25° C.; type: physicochemical; details: for Difference (pK2 - pK1): 25° C., method (D); for first acid dissociation index / second acid dissociation index: for the dibasic acid, source of value not given
Method: The organic dibasic acid used as a deodorant in the present invention is selected from organic dibasic acids and/or salts thereof having a difference between the first acid dissociation index and the second acid dissociation index of 1.7 or more at 25° C. (hereinafter, described as deodorant organic dibasic acid). The acid dissociation index can be measured, for example, by a method (A) described in The Journal of Physical Chemistry vol.
Further, previously obtained data may also be used. […] Further, the organic dibasic acid can be selected based on data bases (D) such as pKa BASE of Compudrug, and the like. The first acid dissociation index and the second acid dissociation index of the organic dibasic acid may be determined by any of the methods (A) to (D).

[2] = 25° C.; method (D), data bases such as pKa BASE of Compudrug; cited from earlier work

Compound	Difference (pK2 - pK1) [1]	first acid dissociation index [1]	second acid dissociation index [1]	First acid dissociation index (pK1) [2]	Second dissociation index (pK2) [2]
CC(C)(C)C(C(=O)O)C(C(=O)O)C(C)(C)C (centres unmarked) [2,3-di-t-butylsuccinic acid]	8.06	–	–	2.20	10.26
CC(C)C(C)(CC(=O)O)CC(=O)O [3-isopropyl-3-methylglutaric acid]	3.14	–	–	3.78	6.92
CC(C)(C(=O)O)C(=O)O [2,2-dimethylmalonic acid]	2.70	–	–	–	–
CC(C)C(CC(=O)O)(CC(=O)O)C(C)C [3,3-diisopropylglutaric acid]	4.05	–	–	3.65	7.68
CCC(C)(CC(=O)O)CC(=O)O [3-methyl-3-ethylglutaric acid]	3.08	–	–	3.62	6.70
CCC(CC)(CC(=O)O)CC(=O)O [3,3-diethylglutaric acid]	3.75	–	–	3.67	7.42
CC(C)(C)C(C(=O)O)C(=O)O [2-t-butylmalonic acid]	4.12	–	–	2.92	7.04
CC(C)C(C(=O)O)C(=O)O [2-isopropylmalonic acid]	2.96	–	–	2.92	5.88
CC(CC(=O)O)(CC(=O)O)c1ccccc1 [3-methyl-3-phenylglutaric acid]	2.05	–	–	4.12	6.17
CC(C(=O)O)C(=O)O [2-methylmalonic acid]	2.71	–	–	3.05	5.76
CCCC(CCC)(CC(=O)O)CC(=O)O [3,3-dipropylglutaric acid]	3.83	–	–	3.65	7.48
CC(C(=O)O)C(C)C(=O)O (centres unmarked) [2,3-dimethylsuccinic acid]	2.08	–	–	3.92	6.00
CCC(CC)(C(=O)O)C(=O)O [2,2-diethylmalonic acid]	5.27	–	–	2.15	7.42
CC1CCC(CC(=O)O)(CC(=O)O)C1 (centres unmarked) [3-methylcyclopentyl-1,1-diacetic acid]	2.95	–	–	3.79	6.74
O=C(O)[C@H]1CC[C@H]1C(=O)O [Cis-1,2-cyclobutanedicarboxylic acid]	2.07	–	–	4.16	6.23
CCC(C(=O)O)(C(=O)O)C(C)C [2-ethyl-2-isopropylmalonic acid]	6.07	–	–	2.03	8.10
CC1CCC(CC(=O)O)(CC(=O)O)CC1 [4-methylcyclohexyl-1,1-diacetic acid]	2.61	–	–	3.49	6.10
CCC(C)(C(=O)O)C(=O)O [2-ethyl-2-methylmalonic acid]	4.35	–	–	2.20	6.55
CCCC(CC(=O)O)(CC(=O)O)c1ccccc1 [3-phenyl-3-propylglutaric acid]	3.06	–	–	3.88	6.94
CCC(CC)C(CC)(CCC(=O)O)C(=O)O (centres unmarked) [2-ethyl-2-(1-ethylpropyl)glutaric acid]	5.16	–	–	2.15	7.31
CC1(C)[C@H](C(=O)O)[C@@H]1C(=O)O [3,3-dimethyl-cis-1,2-cyclopropanedicarboxylic acid]	5.56	–	–	2.61	8.17

Continued, in another order:

Difference (pK2 - pK1) [1]	first acid dissociation index [1]	second acid dissociation index [1]	Compound	First acid dissociation index (pK1) [2]	Second dissociation index (pK2) [2]
2.15	–	–	O=C(O)[C@H]1CCC[C@H]1C(=O)O [Cis-1,2-cyclopentanedicarboxylic acid]	4.42	6.57
1.88	–	–	O=C(O)[C@@H]1CCCCC[C@H]1C(=O)O (relative stereo) [Trans-1,2-cycloheptanedicarboxylic acid]	4.30	6.18
1.85	–	–	O=C(O)[C@@H]1CCC[C@H]1C(=O)O (relative stereo) [Trans-1,2-cyclopentandicarboxylic acid]	4.14	5.99
3.73	–	–	O=C(O)[C@H]1CCCCC[C@H]1C(=O)O [Cis-1,2-cycloheptanedicarboxylic acid]	3.87	7.60
4.08	–	–	O=C(O)/C=C\C(=O)O [Maleic acid]	–	–
1.76	–	–	O=C(O)[C@@H]1CCCC[C@H]1C(=O)O (relative stereo) [Trans-1,2-cyclohexanedicarboxylic acid]	–	–
1.87	–	–	O=C(O)[C@@H]1CCCCCC[C@H]1C(=O)O (relative stereo) [Trans-1,2-cyclooctanedicarboxylic acid]	4.37	6.24
2.97	–	–	O=C(O)CC1(CC(=O)O)CCCC1 [cyclopentyl-1,1-diacetic acid]	3.80	6.77
–	4.06	6.01	alkenylsuccinic acid carrying an alkenyl group having 12 carbon atoms [a-3]	–	–
3.85	–	–	CC(C)(C(=O)O)C(C)(C)C(=O)O [Tetramethylsuccinic acid]	3.56	7.41
3.09	–	–	O=C(O)[C@H]1C[C@H]1C(=O)O [Cis-1,2-cyclopropanedicarboxylic acid]	3.56	6.65
1.77	–	–	O=C(O)CC(C(=O)O)c1ccccc1 (centres unmarked) [Phenylsuccinic acid]	3.78	5.55
3.59	–	–	O=C(O)CC1(CC(=O)O)CCCCC1 [Cyclohexyl-1,1-diacetic acid]	3.49	7.08
3.35	–	–	O=C(O)[C@H]1CCCCCC[C@H]1C(=O)O [Cis-1,2-cyclooctanedicarboxylic acid]	3.99	7.34
–	4.01	6.12	alkenylsuccinic acid carrying an alkenyl group having 14 carbon atoms [a-4]	–	–
2.49	–	–	O=C(O)[C@H]1CCCC[C@H]1C(=O)O [Cis-1,2-cyclohexanedicarboxylic acid]	–	–
